This note sets out measurements from ChEMBL document CHEMBL3608255 (ACS Med Chem Lett, 2015).

Where only a bound is given, the exact number is not on record here.

For one assay, the system named is MV4-11. The assay is described as follows: Cytotoxicity against human MV4-11 cells after 24 hrs by CellTiter-Blue assay. The class given is functional. The following applies: MV4-11, 24 h. On the technique in general: The colour change of resazurin is a common sign of viable cells or microbes.
Assay [1] addresses Bromodomain-containing protein 4 (Homo sapiens, UniProt O60885). Kind of assay: Binding affinity to BRD4 (unknown origin) expressed in Escherichia coli BL21 after 1 hr by proprietary competition assay.
Assay [2] concerns the target Serine/threonine-protein kinase PLK1 (Homo sapiens, UniProt P53350). Kind of assay: Binding affinity to PLK1 (unknown origin) expressed in HEK293 cells after 1 hr by proprietary competition assay. The format is cell-based.

For orientation: GI50 means the concentration giving 50% growth inhibition. Lower therefore signals more potent growth inhibition. For orientation: Ki means a measure of affinity in units of concentration, obtained from inhibition or displacement. Higher therefore signals weaker binding.

Serine/threonine-protein kinase PLK1, sequence (P53350 whole entry): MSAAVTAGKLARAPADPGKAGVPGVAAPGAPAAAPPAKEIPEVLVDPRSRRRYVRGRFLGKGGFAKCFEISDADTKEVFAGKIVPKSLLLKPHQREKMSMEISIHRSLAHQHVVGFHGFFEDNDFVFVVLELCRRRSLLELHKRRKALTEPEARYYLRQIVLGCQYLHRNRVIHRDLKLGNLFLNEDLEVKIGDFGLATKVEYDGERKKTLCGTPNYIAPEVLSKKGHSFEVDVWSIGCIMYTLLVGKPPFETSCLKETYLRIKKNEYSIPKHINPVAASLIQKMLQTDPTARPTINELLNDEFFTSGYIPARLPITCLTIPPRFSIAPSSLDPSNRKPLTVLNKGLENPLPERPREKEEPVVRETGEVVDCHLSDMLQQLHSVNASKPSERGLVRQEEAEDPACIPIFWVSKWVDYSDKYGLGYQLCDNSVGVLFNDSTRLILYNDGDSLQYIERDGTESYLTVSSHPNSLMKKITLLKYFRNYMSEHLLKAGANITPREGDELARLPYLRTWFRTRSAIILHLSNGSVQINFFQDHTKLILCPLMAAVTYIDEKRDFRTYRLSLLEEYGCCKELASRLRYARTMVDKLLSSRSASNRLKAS

For `Cc1sc2c(c1C)C(c1ccc(Cl)cc1)=N[C@@H](CC(=O)OC(C)(C)C)c1nnc(C)n1-2`, it took 80 nM to inhibit growth in the assay with MV4-11 by half (GI50).

The molecule `CC[C@@H]1C(=O)Nc2cnc(Nc3ccc(C(=O)NC4CCN(C)CC4)cc3OC)nc2N1C1CCCC1` had a Ki in assay [1] of 7950 nM. Halving of growth in the assay on MV4-11 (GI50) required 219 nM.

As for `CC[C@@H]1C(=O)N(CC)c2cnc(Nc3ccc(C(=O)NC4CCN(C)CC4)cc3OC)nc2N1C1CCCC1`, the figures for the Ki in assay [1] and in assay [2] were 470 nM and 0.91 nM, respectively. The molecule further came in with a GI50 with MV4-11 of 392 nM.

`CC[C@@H]1C(=O)N(C(C)C)c2cnc(Nc3ccc(C(=O)NC4CCN(C)CC4)cc3OC)nc2N1C1CCCC1`: the Ki in assay [1] came out at 4500 nM. The same molecule displayed a GI50 in the assay with MV4-11 of 2670 nM.

In assay [1], `CC[C@@H]1C(=O)N(CC(C)C)c2cnc(Nc3ccc(C(=O)NC4CCN(C)CC4)cc3OC)nc2N1C1CCCC1` came in with a Ki greater than 10000 nM. In the assay with MV4-11, it took 2530 nM to inhibit growth by half (GI50).

On to `CC[C@@H]1C(=O)N(Cc2ccccc2)c2cnc(Nc3ccc(C(=O)NC4CCN(C)CC4)cc3OC)nc2N1C1CCCC1`, for which the Ki in assay [1] is greater than 10000 nM. Besides, the GI50 with MV4-11 was found to be 7280 nM.

Turning to `COc1cc(C(=O)NC2CCN(C)CC2)ccc1Nc1ncc2c(n1)N(C1CCCC1)CC(=O)N2C`, in assay [1], the Ki amounted to 1400 nM. This molecule gave a GI50 in the assay on MV4-11 of 219 nM.

The molecule `CC[C@H]1C(=O)N(C)c2cnc(Nc3ccc(C(=O)NC4CCN(C)CC4)cc3OC)nc2N1C1CCCC1` gave a GI50 in the assay on MV4-11 of 19 nM.

In the case of `COc1cc(C(=O)NC2CCN(C)CC2)ccc1Nc1ncc2c(n1)N(C1CCCC1)[C@H](Cc1ccccc1)C(=O)N2C`, the Ki is greater than 10000 nM in assay [1] and 4.2 nM in assay [2]. This molecule also gave a GI50 in the assay with MV4-11 of 1870 nM.

As for `CC[C@@H]1C(=O)N(C)c2cnc(Nc3ccc(C(=O)NC4CCN(C)CC4)cc3OC)nc2N1CC(C)C`, the figures for the Ki in assay [1] and in assay [2] were 970 nM and 6.95 nM, respectively. This molecule came in with a GI50 in the assay with MV4-11 of 40 nM.

As for `CC[C@@H]1C(=O)N(C)c2cnc(Nc3ccc(C(=O)NC4CCN(C)CC4)cc3OC)nc2N1Cc1cccc(Br)c1`, the Ki in assay [1] is 8.7 nM; in assay [2] it was 5.8 nM. Further, the GI50 in the assay with MV4-11 was determined as 675 nM.

In the case of `CC[C@@H]1C(=O)N(C)c2cnc(Nc3ccc(C(=O)NC4CCN(C)CC4)cc3)nc2N1C1CCCC1`, the affinity in assay [1] corresponds to a Ki of 60 nM. The same molecule registered a GI50 in the assay with MV4-11 of 3 nM.

`CC[C@@H]1C(=O)N(C)c2cnc(Nc3ccc(C(=O)NC4CCN(C)CC4)c(OC)c3)nc2N1C1CCCC1`: the results for the Ki in assay [1] and in assay [2] were 37 nM and 0.52 nM, respectively. Also, in the assay with MV4-11, the GI50 came to 15 nM.

`CC[C@@H]1C(=O)N(C)c2cnc(Nc3ccc(C(=O)NC4CCN(C)CC4)cc3F)nc2N1C1CCCC1` gave an inhibitory constant (Ki) in assay [1] of 46 nM. Halving of growth with MV4-11 (GI50) required 4 nM.

For the molecule `CC[C@@H]1C(=O)N(C)c2cnc(Nc3ccc(C(=O)NC4CCN(C)CC4)cc3OCC(C)C)nc2N1C1CCCC1`, the Ki in assay [1] was determined as 29 nM. This molecule returned a GI50 in the assay with MV4-11 of 154 nM.

`CC[C@@H]1C(=O)N(C)c2cnc(Nc3ccc(C(=O)NC4CCN(C)CC4)cc3OCc3ccccc3)nc2N1C1CCCC1` gave a Ki in assay [1] of 100 nM. Besides, in the assay with MV4-11, the GI50 was 356 nM.

On to `CC[C@@H]1C(=O)N(C)c2cnc(Nc3ccc(C(=O)NC4CCN(C)CC4)cc3OC3CCCC3)nc2N1C1CCCC1`, for which the Ki stood at 27 nM in assay [1] and 0.84 nM in assay [2]. For the same molecule, the GI50 in the assay on MV4-11 turned out to be 240 nM.

`CC[C@@H]1C(=O)N(C)c2cnc(Oc3ccc(C(=O)NC4CCN(C)CC4)cc3OC)nc2N1C1CCCC1`: the results for the Ki in assay [1] and in assay [2] were 99 nM and 240 nM, respectively. Besides, the GI50 in the assay with MV4-11 amounted to 1340 nM.

In the case of `CC[C@@H]1C(=O)N(C)c2cnc(Nc3ccc(C(=O)NC4CCN(C)CC4)cc3OC)nc2N1C1CCCC1` [BI-2536], in the assay on MV4-11, halving of growth (GI50) required 15.2 nM.

`C[C@@H](Oc1cc(-n2cnc3ccc(CN4CCN(C)CC4)cc32)sc1C(N)=O)c1ccccc1C(F)(F)F` [GSK-461364] gave a GI50 in the assay on MV4-11 of 679 nM.
